Values quoted from earlier work, collected in patent publication EP4789665A1, “TREATMENT OF HIS HYPORESPONDERS” (NewAmsterdam Pharma B.V., priority 2021, dated 2023).

What was measured:
CETP [1] = biological target: T1, CETP (Homo sapiens, UniProt P11597); conditions: in combination with atorvastatin; cited from earlier work
T1 construct: endogenous in cells; host or cells: trial patients (in vivo, circulating plasma CETP)
T1 sequence (P11597 18-493): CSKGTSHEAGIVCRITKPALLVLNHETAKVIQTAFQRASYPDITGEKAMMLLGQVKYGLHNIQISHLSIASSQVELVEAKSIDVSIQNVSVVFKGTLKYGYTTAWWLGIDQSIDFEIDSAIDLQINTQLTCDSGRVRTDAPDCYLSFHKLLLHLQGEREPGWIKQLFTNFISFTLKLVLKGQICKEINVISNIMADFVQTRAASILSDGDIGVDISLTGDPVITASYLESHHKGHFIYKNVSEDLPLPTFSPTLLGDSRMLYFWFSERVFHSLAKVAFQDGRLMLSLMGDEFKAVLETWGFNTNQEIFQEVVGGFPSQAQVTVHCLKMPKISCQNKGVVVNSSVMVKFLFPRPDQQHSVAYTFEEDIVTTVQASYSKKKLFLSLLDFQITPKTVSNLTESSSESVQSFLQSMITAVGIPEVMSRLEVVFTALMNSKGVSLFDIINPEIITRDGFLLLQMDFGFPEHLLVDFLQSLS

CETP [2] = biological target: T1, CETP; conditions: in vivo; cited from earlier work
HMG CoA reductase = biological target: T2, HMG CoA reductase (Homo sapiens, UniProt P04035); conditions: rosuvastatin 20 mg; JUPITER secondary analysis; cited from earlier work
T2 construct: host or cells: patients of the JUPITER study (in vivo)
T2 sequence (P04035 1-888): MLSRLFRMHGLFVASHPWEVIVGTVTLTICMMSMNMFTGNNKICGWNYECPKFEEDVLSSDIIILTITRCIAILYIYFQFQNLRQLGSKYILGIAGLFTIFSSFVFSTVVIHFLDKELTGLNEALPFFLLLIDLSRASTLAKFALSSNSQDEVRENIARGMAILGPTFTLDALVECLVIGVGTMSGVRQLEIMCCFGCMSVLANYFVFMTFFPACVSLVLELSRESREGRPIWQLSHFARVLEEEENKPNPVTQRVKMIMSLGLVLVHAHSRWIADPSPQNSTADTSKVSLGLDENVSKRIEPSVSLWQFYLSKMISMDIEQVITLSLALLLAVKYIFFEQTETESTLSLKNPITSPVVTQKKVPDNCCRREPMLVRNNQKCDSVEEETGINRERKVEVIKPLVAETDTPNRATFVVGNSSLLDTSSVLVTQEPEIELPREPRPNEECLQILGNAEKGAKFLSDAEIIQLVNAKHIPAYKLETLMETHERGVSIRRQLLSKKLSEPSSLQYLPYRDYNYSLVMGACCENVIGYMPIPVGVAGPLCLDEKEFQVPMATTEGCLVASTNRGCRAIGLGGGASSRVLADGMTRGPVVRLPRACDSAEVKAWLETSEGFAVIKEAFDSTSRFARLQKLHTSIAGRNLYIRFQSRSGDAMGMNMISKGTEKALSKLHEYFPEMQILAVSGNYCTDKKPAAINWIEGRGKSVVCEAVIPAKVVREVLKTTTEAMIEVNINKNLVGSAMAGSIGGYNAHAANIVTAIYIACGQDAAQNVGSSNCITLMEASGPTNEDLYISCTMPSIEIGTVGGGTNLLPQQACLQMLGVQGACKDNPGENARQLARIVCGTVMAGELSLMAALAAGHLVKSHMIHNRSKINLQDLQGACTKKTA

For `CCOC(=O)N1c2ccc(C(F)(F)F)cc2[C@@H](N(Cc2cc(C(F)(F)F)cc(C(F)(F)F)c2)C(=O)OC)C[C@H]1CC` [torcetrapib], the “cardiovascular events and death” value (CETP [1]) is listed as “unexpected increase in cardiovascular events and death”.
For `CCC(CC)CC1(C(=O)Nc2ccccc2SC(=O)C(C)C)CCCCC1` [dalcetrapib], the “effects on LDL-C concentrations” value (CETP [2]) is given as “minimal effects on LDL-C concentrations” and the “increased HDL-C by” value (CETP [2]) is given as 30-40%.
In the case of `CC(C)c1nc(N(C)S(C)(=O)=O)nc(-c2ccc(F)cc2)c1/C=C/[C@@H](O)C[C@@H](O)CC(=O)O` [rosuvastatin], the “median LDL-C lowering response” value (HMG CoA reductase) is listed as 50%.
